Values of other authors in PMC10933920, “Synthesis and Anti-Inflammatory Activity of Ferulic Acid-Sesquiterpene Lactone Hybrids” (Molecules, 2024).

Tested on: primary lung fibroblasts derived from patients with IPF and non-diseased controls
Parameters: method as in PMID 33730605
Details: unstimulated fibroblasts, 0–10 µM ACT001; cited from earlier work

With CC1=C2CC[C@@](C)(O)[C@@H]2[C@H]2OC(=O)[C@@H](CN(C)C)[C@@H]2CC1 [ACT001] as the compound, how does the IL-6 production read?
Its IL-6 production is “inhibited IL-6”.
